Peptide text beside a SMILES is read from it.
Tests used:
[1] = target: T1, hMC4-R (Homo sapiens (Human), UniProt P32245); assay: Competitive binding assay using Eu-NDP-α-MSH (TRF), hMC4-R membranes; settings: averaged; Eu-NDP-α-MSH (values marked *); read-out: MC4-R Ki
Experimental: Alternatively, a competitive inhibition binding assay was performed employing Eu-NDP-α-MSH (PerkinElmer Life Sciences catalog No. AD0225) with determination by time-resolved fluorometry (TRF) of the lanthanide chelate. […] After incubation for 90 minutes at 37° C., the reaction was stopped by filtration over AcroWell 96-well filter plates (Pall Life Sciences). The filter plates were washed 4 times with 200 μL of ice-cold phosphate-buffered saline. DELFIA Enhancement solution (PerkinElmer Life Sciences) was added to each well. […] Each assay was conducted in duplicate and mean values were utilized. Ki values were determined by curve-fitting with Graph-Pad Prism® software using a one-site fixed-slope competition binding model.

[2] = target: T1, hMC4-R; assay: Competitive inhibition binding assay using [I125]-NDP-α-MSH, hMC4-R membranes
Experimental: A competitive inhibition binding assay is performed using membrane homogenates prepared from HEK-293 cells that express recombinant hMC4-R, hMC3-R, or hMC5-R, and from B-16 mouse melanoma cells (containing endogenous MC1-R). In some instances, HEK-293 cells that express recombinant hMC1-R were employed. In the examples that follow, all MC3-R, MC4-R and MC5-R values are for human recombinant receptors. […] Membrane homogenates were incubated with 0.2 nM (for hMC4-R) 0.4 nM (for MC3-R and MC5-R) or 0.1 nM (for mouse B16 MC1-R or hMC1-R) [I^125]-NDP-α-MSH (Perkin Elmer) and increasing concentrations of test peptides of the present invention in buffer containing 25 mM HEPES buffer (pH 7.5) with 100 mM NaCl, 2 mM CaCl2, 2 mM MgCl2, 0.3 mM 1,10-phenanthroline, and 0.2% bovine serum albumin. After incubation for 60 minutes at 37° C., the assay mixture was filtered and the membranes washed three times with ice-cold buffer. Filters were dried and counted in a gamma counter for bound radioactivity. […] Maximal specific binding (100%) was defined as the difference in radioactivity (cpm) bound to cell membranes in the absence and presence of 1 μM NDP-α-MSH. […] Each assay was conducted in triplicate and the actual mean values are described, with results less than 0% reported as 0%. Ki values for test peptides of the present invention were determined using Graph-Pad Prism® curve-fitting software.

[3] = target: T1, hMC4-R; assay: Assay for agonist activity: cAMP accumulation in HEK-293 cells that express hMC4-R
Experimental: By “intrinsic activity” is meant the maximal functional activity achievable by a compound in a specified melanocortin receptor expressing cell system, such as the maximal stimulation of adenylyl cyclase.
Accumulation of intracellular cAMP was examined as a measure of the ability of the peptides of the present invention to elicit a functional response in HEK-293 cells that express MC4-R. Confluent HEK-293 cells that express recombinant hMC4-R were detached from culture plates by incubation in enzyme-free cell dissociation buffer. Dispersed cells were suspended in Earle's Balanced Salt Solution containing 10 mM HEPES (pH 7.5), 1 mM MgCl2, 1 mM glutamine, 0.5% albumin and 0.3 mM 3-isobutyl-1-methyl-xanthine (IBMX), a phosphodiesterase inhibitor. […] Cells were exposed for 15 minutes at 37° C. to peptides of the present invention dissolved in DMSO (final DMSO concentration of 1%) at a concentration range of 0.05-5000 nM in a total assay volume of 200 μL. […] Data analysis was performed by nonlinear regression analysis with Graph-Pad Prism® software. The maximum efficacies of the test peptides of the present invention were compared to that achieved by the reference melanocortin agonist NDP-αMSH.

T1 sequence (P32245 whole entry): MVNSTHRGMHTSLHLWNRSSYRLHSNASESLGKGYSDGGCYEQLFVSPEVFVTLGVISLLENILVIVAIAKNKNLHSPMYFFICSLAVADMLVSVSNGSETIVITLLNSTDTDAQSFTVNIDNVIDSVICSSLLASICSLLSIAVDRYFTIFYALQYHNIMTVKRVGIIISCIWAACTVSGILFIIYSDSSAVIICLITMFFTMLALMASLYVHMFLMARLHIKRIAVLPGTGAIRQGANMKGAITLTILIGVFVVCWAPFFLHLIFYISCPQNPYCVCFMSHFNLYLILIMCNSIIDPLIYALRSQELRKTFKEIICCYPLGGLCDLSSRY

| Ki [1] | Structure (SMILES) | further results |
| --- | --- | --- |
| 140 nM | CC(=O)N[C@@H](CCCNC(=N)N)C(=O)N[C@H]1CC(=O)NCCCC[C@@H](C(N)=O)NC(=O)[C@H](Cc2c[nH]c3ccccc23)NC(=O)[C@H](CCCNC(=N)N)NC(=O)[C@@H](Cc2ccccc2)NC(=O)[C@H]([C@@H](C)O)NC1=O [compound 35, Ac-Arg-cyclo(Asp-Thr- D-Phe-Arg-Trp-Lys)- NH2] (HELM PEPTIDE1{[ac].R.D.T.[dF].R.W.K.[am]}$PEPTIDE1,PEPTIDE1,3:R3-8:R3$$$V2.0) |  |
| 35 nM | CSCC[C@@H]1NC(=O)[C@@H](NC(=O)[C@H](CCCNC(=N)N)NC(C)=O)CC(=O)NCCCC[C@@H](C(N)=O)NC(=O)[C@H](Cc2c[nH]c3ccccc23)NC(=O)[C@H](CCCNC(=N)N)NC(=O)[C@@H](Cc2ccccc2)NC1=O [compound 38, Ac-Arg-cyclo(Asp-Met- D-Phe-Arg-Trp-Lys)- NH2] (HELM PEPTIDE1{[ac].R.D.M.[dF].R.W.K.[am]}$PEPTIDE1,PEPTIDE1,3:R3-8:R3$$$V2.0) |  |
| 47 nM | CC(=O)N[C@@H](CCCNC(=N)N)C(=O)N[C@H]1CC(=O)NCCCC[C@@H](C(N)=O)NC(=O)[C@H](Cc2c[nH]c3ccccc23)NC(=O)[C@H](CCCNC(=N)N)NC(=O)[C@@](C)(Cc2ccccc2)NC(=O)[C@H](Cc2c[nH]cn2)NC1=O [compound 60, Ac-Arg-cyclo(Asp-His- D-(alpha-Me)Phe-Arg- Trp-Lys)-NH2] |  |
| 80 nM | CC(=O)N[C@@H](CCCNC(=N)N)C(=O)N[C@H]1CC(=O)NCCCC[C@@H](C(N)=O)NC(=O)[C@H](Cc2c[nH]c3ccccc23)NC(=O)[C@H](CCCNC(=N)N)NC(=O)[C@@H](Cc2ccccc2)NC(=O)[C@H](CN)NC1=O [compound 62, Ac-Arg-cyclo(Asp-Dap- D-Phe-Arg-Trp-Lys)- NH2] |  |
| 46 nM | CC(=O)N[C@H](CCCNC(=N)N)C(=O)N[C@H]1CC(=O)NCCCC[C@@H](C(N)=O)NC(=O)[C@H](Cc2c[nH]c3ccccc23)NC(=O)[C@H](CCCNC(=N)N)NC(=O)[C@@H](Cc2ccccc2)NC(=O)[C@H](C)NC1=O [compound 70, Ac-D-Arg-cyclo(Asp- Ala-D-Phe-Arg-Trp- Lys)-NH2] |  |
|  | CC(=O)N[C@H](CCCNC(=N)N)C(=O)N[C@H]1CC(=O)NCCCC[C@@H](C(N)=O)NC(=O)[C@H](Cc2c[nH]c3ccccc23)NC(=O)[C@H](CCCNC(=N)N)NC(=O)[C@@H](Cc2ccccc2)NC(=O)[C@H](CCC(N)=O)NC1=O [compound 71, Ac-D-Arg-cyclo(Asp- Gln-D-Phe-Arg-Trp- Lys)-NH2] | Ki ([2]; averaged, [I125]-NDP-α-MSH (values not marked *), read-out: MC4-R Ki): 45 nM; Ki ([2]; read-out: hMC4-R (Ki)): 45 nM; EC50 [3]: 2 nM |
| 2 nM | CC(=O)N[C@H](CCCNC(=N)N)C(=O)N[C@H]1CC(=O)NCCCC[C@@H](C(N)=O)NC(=O)[C@H](Cc2c[nH]c3ccccc23)NC(=O)[C@H](CCCNC(=N)N)NC(=O)[C@@H](Cc2ccccc2)NC(=O)[C@@H]2C[C@@H](Cc3ccccc3)CN2C1=O [compound 72, Ac-D-Arg-cyclo(Asp- Pro(4R-Bzl)-D-Phe-Arg- Trp-Lys)-NH2] |  |
| 60 nM | CC(=O)N[C@@H](CCCNC(=N)N)C(=O)N[C@H]1CC(=O)NCCCC[C@@H](C(=O)O)NC(=O)[C@H](Cc2c[nH]c3ccccc23)NC(=O)[C@H](CCCNC(=N)N)NC(=O)[C@@H](Cc2ccccc2)NC(=O)[C@H](CCCNC(=N)N)NC1=O [compound 73, Ac-Arg-cyclo(Asp-Arg- D-Phe-Arg-Trp-Lys)-OH] |  |
| 40 nM | CC(=O)N[C@H](CCCNC(=N)N)C(=O)N[C@H]1CCC(=O)NCCC[C@@H](C(=O)O)NC(=O)[C@H](Cc2c[nH]c3ccccc23)NC(=O)[C@H](CCCNC(=N)N)NC(=O)[C@@H](Cc2ccccc2)NC(=O)[C@H](Cc2c[nH]cn2)NC1=O [compound 85, Ac-D-Arg-cyclo(Glu- His-D-Phe-Arg-Trp- Orn)-OH] (HELM PEPTIDE1{[ac].[dR].E.H.[dF].R.W.[Orn]}$PEPTIDE1,PEPTIDE1,3:R3-8:R3$$$V2.0) |  |
| 113 nM | CC(=O)N[C@@H](CCCNC(=N)N)C(=O)N[C@H]1CCC(=O)NCCC[C@@H](C(=O)O)NC(=O)[C@H](Cc2c[nH]c3ccccc23)NC(=O)[C@H](CCCNC(=N)N)NC(=O)[C@@H](Cc2ccccc2)NC(=O)[C@H](CCCCN)NC1=O [compound 89, Ac-Arg-cyclo(Glu-Lys- D-Phe-Arg-Trp-Orn)- OH] (HELM PEPTIDE1{[ac].R.E.K.[dF].R.W.[Orn]}$PEPTIDE1,PEPTIDE1,3:R3-8:R3$$$V2.0) |  |
| 1 nM | CC(=O)N[C@@H](CCCNC(=N)N)C(=O)N[C@H]1CCCCNC(=O)C[C@@H](C(N)=O)NC(=O)[C@H](Cc2c[nH]c3ccccc23)NC(=O)[C@H](CCCNC(=N)N)NC(=O)[C@@H](Cc2ccccc2)NC(=O)[C@H](Cc2c[nH]cn2)NC1=O [compound 96, Ac-Arg-cyclo(Lys-His- D-Phe-Arg-Trp-Asp)- NH2] (HELM PEPTIDE1{[ac].R.K.H.[dF].R.W.D.[am]}$PEPTIDE1,PEPTIDE1,3:R3-8:R3$$$V2.0; bridges inferred) |  |
| 6 nM | CCNC(=O)[C@@H]1CCCNC(=O)CC[C@H](NC(=O)[C@H](CCCNC(=N)N)NC(C)=O)C(=O)N[C@@H](Cc2c[nH]cn2)C(=O)N[C@H](Cc2ccccc2)C(=O)N[C@@H](CCCNC(=N)N)C(=O)N[C@@H](Cc2c[nH]c3ccccc23)C(=O)N1 [compound 109, Ac-Arg-cyclo(Glu-His- D-Phe-Arg-Trp-Orn)- NH-Et] (HELM PEPTIDE1{[ac].R.E.H.[dF].R.W.[Orn].[CCN[*:1]]}$PEPTIDE1,PEPTIDE1,3:R3-8:R3$$$V2.0) |  |
| 1 nM | CC(=O)N[C@@H](CCCNC(=N)N)C(=O)N[C@H]1CCC(=O)NCCC[C@@H](C(=O)NC2CC2)NC(=O)[C@H](Cc2c[nH]c3ccccc23)NC(=O)[C@H](CCCNC(=N)N)NC(=O)[C@@H](Cc2ccccc2)NC(=O)[C@H](Cc2c[nH]cn2)NC1=O [compound 110, Ac-Arg-cyclo(Glu-His- D-Phe-Arg-Trp-Orn)- NH-cyclopropyl] (HELM PEPTIDE1{[ac].R.E.H.[dF].R.W.[Orn].[C1CC1N[*:1]]}$PEPTIDE1,PEPTIDE1,3:R3-8:R3$$$V2.0) |  |
| 88 nM | CC(=O)NC[C@@H]1NC(=O)[C@@H](NC(=O)[C@H](CCCNC(=N)N)NC(C)=O)CC(=O)NCCCC[C@@H](C(N)=O)NC(=O)[C@H](Cc2c[nH]c3ccccc23)NC(=O)[C@H](CCCNC(=N)N)NC(=O)[C@@H](Cc2ccccc2)NC1=O [compound 114, Ac-Arg-cyclo(Asp- Dab(Acetyl)-D-Phe-Arg- Trp-Lys)-NH2] |  |
| 145 nM | CC(=O)N[C@@H](CCCNC(=N)N)C(=O)N[C@H]1CC(=O)NCCCC[C@@H](C(N)=O)NC(=O)[C@H](Cc2c[nH]c3ccccc23)NC(=O)[C@H](CCCNC(=N)N)NC(=O)[C@@H](Cc2ccccc2)NC(=O)[C@H](CNC(=O)[C@H]2CCNC2)NC1=O [compound 118, Ac-Arg-cyclo(Asp- Dap(betaPro)-D-Ph- Arg-Trp-Lys)-NH2] |  |
| 8 nM | CC(=O)N[C@@H](CCCNC(=N)N)C(=O)N[C@H]1CC(=O)NCCCC[C@@H](C(N)=O)NC(=O)[C@H](Cc2c[nH]c3ccccc23)NC(=O)[C@H](CCCNC(=N)N)NC(=O)[C@@H](Cc2ccccc2)NC(=O)[C@@H]2C[C@@H](Cc3ccccc3Cl)CN2C1=O [compound 123, Ac-Arg-cyclo(Asp- Pro(4R-2-Cl-Bzl)-D- Phe-Arg-Trp-Lys)-NH2] |  |
| 19 nM | CC(=O)N[C@@H](CCCNC(=N)N)C(=O)N[C@H]1CC(=O)NCCCC[C@@H](C(N)=O)NC(=O)[C@H](Cc2c[nH]c3ccccc23)NC(=O)[C@H](CCCNC(=N)N)NC(=O)[C@@H](Cc2ccccc2)NC(=O)[C@@H]2C[C@@H](Cc3cccc(Cl)c3)CN2C1=O [compound 124, Ac-Arg-cyclo(Asp- Pro(4R-3-Cl-Bzl)-D- Phe-Arg-Trp-Lys)-NH2] |  |
|  | CC(=O)N[C@@H](CCCNC(=N)N)C(=O)N[C@H]1CCNC(=O)CCC[C@@H](C(N)=O)NC(=O)[C@H](Cc2c[nH]c3ccccc23)NC(=O)[C@H](CCCNC(=N)N)NC(=O)[C@@H](Cc2ccccc2)NC(=O)[C@H](Cc2c[nH]cn2)NC1=O [compound 128, Ac-Arg-cyclo(Dab-His- D-Phe-Arg-Trp-hGlu)- NH2] | functional status at MC4-R (agonist / partial agonist) ([3]; agonist = intrinsic activity 70% or higher, partial agonist 10-70%): agonist |

| Structure (SMILES) | Ki [1] | further results |
| --- | --- | --- |
| CC(=O)N[C@H](CCCCN)C(=O)N[C@H]1CCCNC(=O)CC[C@@H](C(N)=O)NC(=O)[C@H](Cc2c[nH]c3ccccc23)NC(=O)[C@H](CCCNC(=N)N)NC(=O)[C@@H](Cc2ccccc2)NC(=O)[C@H](Cc2c[nH]cn2)NC1=O [compound 133, Ac-D-Lys-cyclo(Orn- His-D-Phe-Arg-Trp- Glu)-NH2] | 8 nM |  |
